We go through three molecules from patent US11684617B2, “Methods of diagnosing and treating ADHD in biomarker positive subjects” (The Children's Hospital of Philadelphia, priority 2017, dated 2023).

One series has as its system pediatric ADHD subjects. As to conditions: pediatric ADHD subjects (Akhundian 2001); cited from earlier work.
The test system of series [1] is CNV-positive adolescents with moderately severe ADHD. Briefly: SAGA Phase 2 study: treatment response (responder: >=30% ADHD-RS-5 reduction, CGI-I 1 or 2, composite). Type of series: in vivo, human. The conditions noted are these: for Responder? (Y/N): Table 19. On the procedure:
(§1) The maximum dose was 400 mg BID or placebo.
Treatment response was evaluated by measurement of responders and remission. The definition of a “responder” in this study was a response at endpoint of:
A) ≥30% reduction from Baseline in ADHD-RS-5 Total score; • B) CGI-I score of 1 (very much improved) or 2 (much improved); OR • C) Composite (both A and B)
Throughout, the “Response” columns represent the % reduction in ADHD-RS score at endpoint from baseline. […]

Series [2] shares this test system. Briefly: SAGA Phase 2 study: tolerability/safety, treatment-emergent adverse events (safety population). As to conditions: safety population; NFC-1 n = 47.
Another series relates to animal models. As to conditions: cited from earlier work.
Series [3] deals with CNV-positive adolescents with moderately severe ADHD. As to conditions: in vivo.
Series [4] shares this test system. Briefly: SAGA Phase 2 study: ADHD-RS-5 total score change from baseline (LOCF). The series is classed as in vivo, human. Also noted: Response (% reduction in ADHD-RS score at endpoint from baseline): concentration or dose not given beside the values. As to conditions: for Response (change from baseline in ADHD RS-5 total score): Table 19.
Description: Subjects received randomized treatment with either NFC-1 or placebo. Subjects had ADHD as defined by the Diagnostic and Statistical Manual of Mental Disorders, 5th edition (DSM-5) and Version 5 of the Attention Deficit Hyperactivity Disorder Rating Scale (ADHD RS-5) >28 at Baseline with or without conventional ADHD therapy.
The study was a multicenter, Phase 2, double-blind, randomized, placebo-controlled, parallel-group, dose-optimization study. The study enrolled adolescents 12-17 yrs (inclusive) with ADHD defined by DSM-5 criteria.
Subjects were CNV positive for a CNVs in at least one of the 273 Tier 1 or Tier 2 glutamatergic network genes of interest as listed in Table 1 or 2. These subjects positive for a CNV may also be termed “biomarker positive.”
as §1
Efficacy was assessed by the ADHD RS-5, CGI-I, CGI-S, the Adolescent Sleep Hygiene Scale (ASHS), and the Screen for Childhood Anxiety-related Emotional Disorders (SCARED).
The primary efficacy endpoint was the change from baseline in ADHD-RS-5 total score to end of study (last observation carried forward, LOCF) in Intent-to-Treat (ITT) population. The ITT population consisted of 101 patients randomized to NFC-1 or placebo.

For series [5] the test system is unchanged. Briefly: SAGA Phase 2 study: remission (ADHD-RS-5 <=18, CGI-I 1, composite). The series is classed as in vivo, human. As to conditions: endpoint; data not shown. On the procedure: as §1
The definition of a “remission” in this study was a response at endpoint of:
A) ADHD-RS-5 Total score ≤18; • B) CGI-I score of 1. OR • C) Composite (both A and B)

In series [6] the test system is dementia-related cognitive impairment. As to conditions: cited from earlier work.
Series [7] concerns group I and group II/III mGluRs. As to conditions: in vitro studies (Hirouchi 2000); cited from earlier work.
For series [8] the following is noted: prior human studies; cited from earlier work.
The mark [9] stands for this setting: NFC-1-treated patient with CNV in ADRA2A.
The mark [10] stands for this setting: NFC-1-treated patient with CNV in CA8.
Where [11] appears, read: NFC-1-treated patient with CNV in GRM5.
[12] abbreviates: NFC-1-treated patient with CNV in SNCA.
Setting [13] is: study end (LOCF), 8-Gene Subset including CNTN4, NFC-1 BID n = 17, p <0.0001 vs placebo.
[14] abbreviates: study end (LOCF), CNTN4 Subset, NFC-1 BID n = 6, p <0.01 vs placebo.
Where [15] appears, read: treatment response at endpoint (ITT, LOCF), NFC-1 BID n = 46, p <0.05 vs placebo.

Where “and” joins values, the source holds several entries; their conditions need not be identical. Identical values can stand only once.

For the molecule `NC(=O)CN1CCCC1=O` [piracetam], the “effect on ADHD symptoms compared to placebo control” value with pediatric ADHD subjects is given as “increase ADHD symptoms”.

Turning to `O=C1CC[C@H](C(=O)N2CCCCC2)N1` [NFC-1, fasoracetam monohydrate], the “Responder? (Y/N)” value in series [1] (setting [9]) is listed as “Y (“Responder” indicates a 30% or greater reduction from baseline in ADHD RS-5 total score)”. Besides, in [1] (setting [10]), the “Responder? (Y/N)” value is on record as “Y (“Responder” indicates a 30% or greater reduction from baseline in ADHD RS-5 total score)”. For the same molecule, the “Responder? (Y/N)” value in series [1] (setting [11]) is reported as “Y (“Responder” indicates a 30% or greater reduction from baseline in ADHD RS-5 total score)”. In addition, the “Responder? (Y/N)” value in [1] (setting [12]) is reported as “Y (“Responder” indicates a 30% or greater reduction from baseline in ADHD RS-5 total score)”. In addition, the “Responder? (Y/N)” value in series [1] (NFC-1-treated patients with CNV in CNTN4) is reported as “Y (“Responder” indicates a 30% or greater reduction from baseline in ADHD RS-5 total score)”. For the same molecule, the “Responder? (Y/N)” value in series [1] (NFC-1-treated patients with CNV in GRM8) is recorded as “Y (“Responder” indicates a 30% or greater reduction from baseline in ADHD RS-5 total score)”. In series [1] (setting [13]), the “ADHD-RS-5 Total Score: ≥30% Reduction from Baseline, % of subjects” value is 88% (15); the “CGI-I Score 1 or 2, % of subjects” value is 76% (13); the “Composite response, % of subjects” value is 76% (13). Besides, the “ADHD-RS-5 Total Score: ≥30% Reduction from Baseline, % of subjects” value in series [1] (study end (LOCF), CNTN4 Subset, NFC-1 BID n = 6, p <0.005 vs placebo) is listed as 100% (6). In series [1] (setting [14]), the “CGI-I Score 1 or 2, % of subjects” value is given as 83% (5) and the “Composite response, % of subjects” value was 83% (5). In addition, the “patients with 30% or greater reduction from baseline in ADHD RS-5 total score” value in series [1] (subjects with a CNV in CNTN4 assigned to NFC-1) is listed as 6/6. Moreover, the “ADHD RS-5 Total Score: ≥30% Reduction from Baseline, % of subjects” value in [1] (treatment response at endpoint (ITT, LOCF), NFC-1 BID n = 46, p <0.01 vs placebo) was 70% (32). Moreover, in [1] (setting [15]), the “CGI-I Score 1 or 2, % of subjects” value is recorded as 57% (26) and the “Composite response, % of subjects” value is listed as 57% (26). Further, the “TEAE: Upper respiratory tract infection, % of subjects” value in series [2] was found to be 4%. For the same molecule, the “effects on learning and memory” value with animal models is given as “Positive effects”. In addition, the “subjects in whom dosing with the highest dose (400 mg BID) was achieved” value in [3] (human, 4 weeks) is on record as 91%. For the same molecule, in series [3] (human, 6 weeks), the “Any TEAE, % of subjects” value is 70%; the “Discontinuations due to TEAEs, % of subjects” value is on record as 6%; the “TEAE: Accidental overdose, % of subjects” value turned out to be 11%; the “TEAE: Appetite increased, % of subjects” value is recorded as 6%. For the same molecule, in series [3] (human, 6 weeks), the “TEAE: Fatigue, % of subjects” value stood at 15%; the “TEAE: Headache, % of subjects” value worked out at 9%; the “TEAE: Irritability, % of subjects” value was determined as 2%; the “TEAE: Nasopharyngitis, % of subjects” value worked out at 2%. For the same molecule, in [3] (human, 6 weeks), the “TEAE: Nausea, % of subjects” value came out at 6% and the “TEAE: Weight increased, % of subjects” value stood at 15%. In [3], the overall tolerability entry was “generally well-tolerated”, the “serious TEAEs” value was “No serious TEAEs were reported” and the “severity of TEAEs” value was “majority of TEAEs were mild-to-moderate”. Further, the “difference between placebo and NFC-1 in ADHD-RS-5 total score change from Baseline to LOCF endpoint (primary endpoint)” value in series [4] (ITT, overall population, optimized dose 100, 200 or 400 mg BID) is recorded as “not significant”. In series [4] (Table 16, individual subjects with CNV in CNTN4 in the NFC-1-treated group, monohydrate), the “Response (% reduction in ADHD-RS score at endpoint from baseline)” value is −41.46% and −35.9% and −77.42% and −70% and −62.5% and −48.65%. The “Response (change from baseline in ADHD RS-5 total score)” value in [4] (setting [9]) is −65%. Also, the “Response (change from baseline in ADHD RS-5 total score)” value in series [4] (setting [10]) is given as −33.3333%. Moreover, the “Response (change from baseline in ADHD RS-5 total score)” value in series [4] (setting [11]) was −37.5%. Also, in series [4] (setting [12]), the “Response (change from baseline in ADHD RS-5 total score)” value was −76.9231%. In series [4] (NFC-1-treated patients with CNV in GRM8, monohydrate), the “Response (change from baseline in ADHD RS-5 total score)” value was −48.2759% and −39.0244%. Moreover, in [5], the “difference between treatment groups in remission” value is “no significant difference”. In addition, the safety and tolerability result in series [6] (Phase I-III trials, dementia indications) was “generally safe and well tolerated”. Further, the “effects on psychiatric symptoms” value in series [6] (Phase III data, cerebral infarct patients and adult dementia patients with cerebrovascular diseases) was “beneficial effects”. For the same molecule, the efficacy in dementia result in [6] (Phase III trials) is reported as “did not show sufficient efficacy”.

Take `O=C1CC[C@H](C(=O)N2CCCCC2)N1` [Fasoracetam, (+)-5-oxo-D-prolinepiperidinamide]: the “stimulation of mGluRs” value in series [7] was “can stimulate both group I and group II/III mGluRs”. In addition, in series [8], the bioavailable is listed as 79%-97% and the half-life is 5 to 6.5 h.

In general, half-life refers to the time needed for the level to fall by half in the phase considered.
